# Measurements published in patent US10550105B2 (Ribon Therapeutics Inc., priority 2018, dated 2020).
# Biological target: PARP7 (Homo sapiens (Human), UniProt Q7Z3E1)
# Assay: Enzymatic assay for inhibition of PARP7: TR-FRET displacement of biotinylated Probe A from the TIPARP active site
# Format: binding
# Conditions: Table A-1
# How it was run: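 Read-out: 665/615 nm emission ratio (ex 320 nm, 90 μs delay) indexing bound TIPARP–Probe A. Final incubation 30 min, 25° C; compounds in dose response. Curve fit of % inhibition vs concentration; Hill slope floating or fixed at 1 (3-parameter).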
# Chain of PARP7 (Q7Z3E1 whole entry): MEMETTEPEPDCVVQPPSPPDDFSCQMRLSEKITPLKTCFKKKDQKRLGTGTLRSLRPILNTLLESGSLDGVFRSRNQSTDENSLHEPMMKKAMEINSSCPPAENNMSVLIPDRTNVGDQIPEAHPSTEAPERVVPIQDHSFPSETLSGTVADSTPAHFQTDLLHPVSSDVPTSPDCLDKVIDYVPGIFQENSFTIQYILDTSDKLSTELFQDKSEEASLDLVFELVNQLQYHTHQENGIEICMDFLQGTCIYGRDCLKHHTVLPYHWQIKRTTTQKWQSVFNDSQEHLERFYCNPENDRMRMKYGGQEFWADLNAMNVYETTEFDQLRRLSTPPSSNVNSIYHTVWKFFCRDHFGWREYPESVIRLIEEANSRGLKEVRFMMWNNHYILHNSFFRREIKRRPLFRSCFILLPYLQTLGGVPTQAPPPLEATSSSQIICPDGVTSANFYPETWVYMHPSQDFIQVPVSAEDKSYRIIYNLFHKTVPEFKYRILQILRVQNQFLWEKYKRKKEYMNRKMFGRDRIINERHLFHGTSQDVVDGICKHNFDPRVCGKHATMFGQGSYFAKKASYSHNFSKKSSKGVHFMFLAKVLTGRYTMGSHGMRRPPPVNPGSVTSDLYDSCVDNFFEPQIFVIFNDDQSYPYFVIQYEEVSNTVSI
row,Compound,IC50
1,"N#Cc1ccc(N2CCN(C(=O)C[C@H]3CC[C@@H](COc4cn[nH]c(=O)c4C(F)(F)F)O3)CC2)nc1 [Example 580 Isomer C, 6-(4-[2-[(2R,5S)-5-([[6-oxo-5-(trifluoromethyl)-1,6-dihydropyridazin-4-yl]oxy]methyl)oxolan-2-yl]acetyl]piperazin-1-yl)pyridine-3-carbonitrile]",< 100 nM
2,"N#Cc1ccc(N2CCN(C(=O)C[C@@H]3CC[C@H](COc4cn[nH]c(=O)c4C(F)(F)F)O3)CC2)nc1 [Example 580 Isomer D, 6-(4-[2-[(2S,5R)-5-([[6-oxo-5-(trifluoromethyl)-1,6-dihydropyridazin-4-yl]oxy]methyl)oxolan-2-yl]acetyl]piperazin-1-yl)pyridine-3-carbonitrile]",< 100 nM
3,"N#Cc1ccc(N2CCN(C(=O)C[C@H]3CC[C@H](CNc4cn[nH]c(=O)c4C(F)(F)F)O3)CC2)nc1 [Example 581 Isomer C, 6-(4-[2-[(2R,5R)-5-([[6-oxo-5-(trifluoromethyl)-1,6-dihydropyridazin-4-yl]amino]methyl)oxolan-2-yl]acetyl]piperazin-1-yl)pyridine-3-carbonitrile]",< 100 nM
4,"N#Cc1ccc(N2CCN(C(=O)C[C@@H]3CC[C@H](CNc4cn[nH]c(=O)c4C(F)(F)F)O3)CC2)nc1 [Example 581 Isomer D, 6-(4-[2-[(2S,5R)-5-([[6-oxo-5-(trifluoromethyl)-1,6-dihydropyridazin-4-yl]amino]methyl)oxolan-2-yl]acetyl]piperazin-1-yl)pyridine-3-carbonitrile]",< 100 nM
5,"N#Cc1ccc(N2CCN(C(=O)C[C@H]3CC[C@@H](COc4cn[nH]c(=O)c4Cl)O3)CC2)nc1 [Example 582 Isomer C, 6-(4-[2-[(2R,5S)-5-[[(5-Chloro-6-oxo-1,6-dihydropyridazin-4-yl)oxy]methyl]oxolan-2-yl]acetyl]piperazin-1-yl)pyridine-3-carbonitrile]",≥ 1000 nM
6,"N#Cc1ccc(N2CCN(C(=O)C[C@@H]3CC[C@H](COc4cn[nH]c(=O)c4Cl)O3)CC2)nc1 [Example 582 Isomer D, 6-(4-[2-[(2S,5R)-5-[[(5-Chloro-6-oxo-1,6-dihydropyridazin-4-yl)oxy]methyl]oxolan-2-yl]acetyl]piperazin-1-yl)pyridine-3-carbonitrile]",≥ 1000 nM
7,"C[C@@H](COCCC(=O)N1CCN(c2ccc(C(F)(F)F)cn2)CC1)Oc1cn[nH]c(=O)c1C(F)(F)F [Example 584, 5-[[(2S)-1-(3-oxo-3-[4-[5-(trifluoromethyl)pyridin-2-yl]piperazin-1-yl]propoxy)propan-2-yl]oxy]-4-(trifluoromethyl)-2,3-dihydropyridazin-3-one]",< 100 nM
8,"CC[C@@H](COCCC(=O)N1CCN(c2ccc(Cl)cn2)CC1)Nc1cn[nH]c(=O)c1C(F)(F)F [Example 586, 5-[[(2S)-1-[3-[4-(5-Chloropyridin-2-yl)piperazin-1-yl]-3-oxopropoxy]butan-2-yl]amino]-4-(trifluoromethyl)-2,3-dihydropyridazin-3-one]",< 100 nM
9,"CC[C@@H](COCCC(=O)N1CCN(c2ccc(C(F)(F)F)cn2)CC1)Nc1cn[nH]c(=O)c1C(F)(F)F [Example 587, 5-[[(2S)-1-(3-Oxo-3-[4-[5-(trifluoromethyl)pyridin-2-yl]piperazin-1-yl]propoxy)butan-2-yl]amino]-4-(trifluoromethyl)-2,3-dihydropyridazin-3-one]",< 100 nM
10,"CC[C@@H](COCCC(=O)N1CCN(c2ccc(C#N)cn2)CC1)Oc1cn[nH]c(=O)c1C(F)(F)F [Example 589, 6-(4-[3-[(2S)-2-[[6-Oxo-5-(trifluoromethyl)-1,6-dihydropyridazin-4-yl]oxy]butoxy]propanoyl]piperazin-1-yl)pyridine-3-carbonitrile]",< 100 nM
11,"CC[C@@H](COc1cn[nH]c(=O)c1C(F)(F)F)OCCC(=O)N1CCN(c2ncc(Cl)cn2)CC1 [Example 591 Isomer B, 5-[(2S)-2-[3-[4-(5-Chloropyrimidin-2-yl)piperazin-1-yl]-3-oxopropoxy]butoxy]-4-(trifluoromethyl)-2,3-dihydropyridazin-3-one]",< 100 nM
12,"CC[C@@H](COCCC(=O)N1CCN(c2ncc(C#N)cn2)CC1)Oc1cn[nH]c(=O)c1C(F)(F)F [Example 592, 2-(4-[3-[(2S)-2-[[6-oxo-5-(trifluoromethyl)-1,6-dihydropyridazin-4-yl]oxy]butoxy]propanoyl]piperazin-1-yl)pyrimidine-5-carbonitrile]",< 100 nM
13,"COC[C@@H](COCCC(=O)N1CCN(c2ccc(Cl)cn2)CC1)Nc1cn[nH]c(=O)c1C(F)(F)F [Example 593, 5-[[(2S)-1-[3-[4-(5-Chloropyridin-2-yl)piperazin-1-yl]-3-oxopropoxy]-3-methoxypropan-2-yl]amino]-4-(trifluoromethyl)-2,3-dihydropyridazin-3-one]",< 100 nM
14,"COC[C@@H](COCCC(=O)N1CCN(c2ccc(C(F)(F)F)cn2)CC1)Nc1cn[nH]c(=O)c1C(F)(F)F [Example 594, 5-[[(2S)-1-Methoxy-3-(3-oxo-3-[4-[5-(trifluoromethyl)pyridin-2-yl]piperazin-1-yl]propoxy)propan-2-yl]amino]-4-(trifluoromethyl)-2,3-dihydropyridazin-3-one]",< 100 nM
15,"CC(C)[C@@H](COCCC(=O)N1CCN(c2ccc(C#N)cn2)CC1)Nc1cn[nH]c(=O)c1C(F)(F)F [Example 595, 6-(4-[3-[(2S)-3-Methyl-2-[[6-oxo-5-(trifluoromethyl)-1,6-dihydropyridazin-4-yl]amino]butoxy]propanoyl]piperazin-1-yl)pyridine-3-carbonitrile]",< 100 nM
16,"CO[C@H](C)[C@@H](COCCC(=O)N1CCN(c2ccc(C#N)cn2)CC1)Nc1cn[nH]c(=O)c1C(F)(F)F [Example 596, 6-(4-[3-[(2R,3R)-3-Methoxy-2-[[6-oxo-5-(trifluoromethyl)-1,6-dihydropyridazin-4-yl]amino]butoxy]propanoyl]piperazin-1-yl)pyridine-3-carbonitrile]",< 100 nM
17,"C[C@@H](COCCC(=O)N1CCN(c2ccc(C#N)cn2)CC1)Nc1cn[nH]c(=O)c1Cl [Example 597, 6-(4-[3-[(2S)-2-[(5-Chloro-6-oxo-1,6-dihydropyridazin-4-yl)amino]propoxy]propanoyl]piperazin-1-yl)pyridine-3-carbonitrile]",< 100 nM
18,"C[C@@H](COCCC(=O)N1CCN(c2ccc(C#N)cn2)CC1)Nc1cn[nH]c(=O)c1Br [Example 600, 6-(4-[3-[(2S)-2-[(5-bromo-6-oxo-1,6-dihydropyridazin-4-yl)amino]propoxy]propanoyl]piperazin-1-yl)pyridine-3-carbonitrile]",< 100 nM

# Second part, the compound after the results:
row,IC50,Compound
1,≥ 1000 nM,"O=C(C[C@@H]1CC[C@H](COc2cn[nH]c(=O)c2Cl)O1)N1CCN(c2ncc(C(F)(F)F)cn2)CC1 [Example 575 Isomer D, 4-Chloro-5-(((2R,5S)-5-(2-oxo-2-(4-(5-(trifluoromethyl)pyrimidin-2-yl)piperazin-1-yl)ethyl)-tetrahydrofuran-2-yl)methoxy)pyridazin-3(2H)-one]"
2,< 100 nM,"C[C@@H](COc1cn[nH]c(=O)c1Cl)OCCC(=O)N1CCN(c2ncc(C(F)(F)F)cn2)CC1 [Example 578 Isomer B, (S)-4-Chloro-5-(2-(3-oxo-3-(4-(5-(trifluoromethyl)pyrimidin-2-yl)piperazin-1-yl)propoxy)propoxy)pyridazin-3(2H)-one]"
3,< 100 nM,"C[C@@H](COCCC(=O)N1CCN(c2ncc(C#N)cn2)CC1)Oc1cn[nH]c(=O)c1C(F)(F)F [Example 579, 2-(4-[3-[(2S)-2-[[6-Oxo-5-(trifluoromethyl)-1,6-dihydropyridazin-4-yl]oxy]propoxy]propanoyl]piperazin-1-yl)pyrimidine-5-carbonitrile]"
4,< 100 nM,"CC[C@@H](COCCC(=O)N1CCN(c2ncc(C(F)(F)F)cn2)CC1)Nc1cn[nH]c(=O)c1C(F)(F)F [Example 585, 5-[[(2S)-1-(3-Oxo-3-[4-[5-(trifluoromethyl)pyrimidin-2-yl]piperazin-1-yl]propoxy)butan-2-yl]amino]-4-(trifluoromethyl)-2,3-dihydropyridazin-3-one]"
5,< 100 nM,"CC[C@@H](COCCC(=O)N1CCN(c2ncc(Cl)cn2)CC1)Nc1cn[nH]c(=O)c1C(F)(F)F [Example 588, 5-[[(2S)-1-[3-[4-(5-Chloropyrimidin-2-yl)piperazin-1-yl]-3-oxopropoxy]butan-2-yl]amino]-4-(trifluoromethyl)-2,3-dihydropyridazin-3-one]"
6,< 100 nM,"N#Cc1cnc(N2CCN(C(=O)CCOCCOc3cn[nH]c(=O)c3C(F)(F)F)CC2)nc1 [Example 590, 2-(4-(3-(2-(6-Oxo-5-(trifluoromethyl)-1,6-dihydropyridazin-4-yloxy)ethoxy)propanoyl)piperazin-1-yl)pyrimidine-5-carbonitrile]"
7,< 100 nM,"C[C@@H](COCCC(=O)N1CCN(c2ncc(Cl)cn2)CC1)Nc1cn[nH]c(=O)c1Cl [Example 598, 4-Chloro-5-[[(2S)-1-[3-[4-(5-chloropyrimidin-2-yl)piperazin-1-yl]-3-oxopropoxy]propan-2-yl]amino]-2,3-dihydropyridazin-3-one]"
8,< 100 nM,"C[C@@H](COCCC(=O)N1CCN(c2ncc(C(F)(F)F)cn2)CC1)Nc1cn[nH]c(=O)c1Cl [Example 599, (S)-4-Chloro-5-(1-(3-oxo-3-(4-(5-(trifluoromethyl)pyrimidin-2-yl)piperazin-1-yl)propoxy)propan-2-ylamino)pyridazin-3(2H)-one]"
9,< 100 nM,"C[C@@H](COCCC(=O)N1CCN(c2ncc(C(F)(F)F)cn2)CC1)Nc1cn[nH]c(=O)c1Br [Example 601, 4-Bromo-5-[[(2S)-1-(3-oxo-3-[4-[5-(trifluoromethyl)pyrimidin-2-yl]piperazin-1-yl]propoxy)propan-2-yl]amino]-2,3-dihydropyridazin-3-one]"
10,< 100 nM,C[C@@H](COCCC(=O)N1CCN(c2ncc(Cl)cn2)CC1)Nc1cn[nH]c(=O)c1Br [Example 602]
